Source: ChEMBL document CHEMBL1135121, “Design and synthesis of some new pyranoxanthenone aminoderivatives with cytotoxic activity” (Bioorg Med Chem Lett, 2002)

Tests used:
HT-29 [1] = experiment: Cell-cycle-phase distribution of HT-29 cell-cultures exposed to 10 uM concentration of compound for 22 hr in G0/G1 phase; assay type: functional, Homo sapiens
Calf thymus DNA = experiment: In vitro calf thymus DNA binding affinity by ethidium bromide displacement; assay type: nucleic-acid assay, Bos taurus
HT-29 [2] = experiment: Cell-cycle-phase distribution of HT-29 cell-cultures exposed to 10 uM concentration of compound for 22 hr in G2/M phase; assay type: functional, Homo sapiens
L1210 = experiment: Inhibitory concentration of compound against proliferation of murine leukemia L1210 cell line; assay type: functional, cell-based; conditions: Mus musculus
HT-29 [3] = experiment: Cell-cycle-phase distribution of HT-29 cell-cultures exposed to 10 uM concentration of compound for 22 hr in S phase; assay type: functional, Homo sapiens
A549 = experiment: Inhibitory concentration of compound against proliferation of lung carcinoma A549 cell line; assay type: functional, cell-based; conditions: Homo sapiens
HT-29 [4] = experiment: Inhibitory concentration of compound against proliferation of colon carcinoma HT-29 cell line; assay type: functional, cell-based; conditions: Homo sapiens
Nucleic Acid = experiment: In vitro DNA binding affinity for calf thymus DNA was determined using ethidium bromide displacement assay; Not detected; assay type: nucleic-acid assay, Bos taurus

| EC50 (Calf thymus DNA) | IC50 (L1210) | IC50 (A549) | IC50 (HT-29 [4]) | EC50 (Nucleic Acid) | SMILES | Activity (HT-29 [1]) | Activity (HT-29 [2]) | Activity (HT-29 [3]) |
| --- | --- | --- | --- | --- | --- | --- | --- | --- |
| 42 µM | 2 µM | 11 µM | 1.7 µM |  | CCN(CC)CCNCc1cc2c(c3oc4ccccc4c(=O)c13)C=CC(C)(C)O2.O=C(O)/C=C/C(=O)O | 79.7 | 7.77 | 12.53 |
| 88 µM | 8.4 µM | > 100 µM | 42 µM |  | CCN(CC)CCNc1cc2c(c3oc4ccccc4c(=O)c13)C=CC(C)(C)O2 |  |  |  |
| 150 µM | 10 µM | 60 µM | 30 µM |  | CCN(CC)CCNC(=O)c1cc2c(c3oc4ccccc4c(=O)c13)C=CC(C)(C)O2 |  |  |  |
| 100 µM | 9 µM | 51 µM | 40 µM |  | CCN(CC)CCNC(=O)c1c2c(cc3oc4ccccc4c(=O)c13)OC(C)(C)C=C2 | 61.24 | 37.7 | 1.06 |
| 89 µM | 7.1 µM | 23 µM | 8 µM |  | CN(C)CCNc1cc2c(c3oc4ccccc4c(=O)c13)C=CC(C)(C)O2 |  |  |  |
|  | 5.1 µM | 25 µM | 8 µM | Not detected | CCN(CC)CCNc1c2c(cc3oc4ccccc4c(=O)c13)OC(C)(C)C=C2.Cl |  |  |  |
| 74 µM | 4.1 µM | 44 µM | 8.8 µM |  | CN(C)CCNCc1cc2c(c3oc4ccccc4c(=O)c13)C=CC(C)(C)O2 |  |  |  |
| 30 µM | 2 µM | 8 µM | 2 µM |  | CCN(CC)CCNCc1c2c(cc3oc4ccccc4c(=O)c13)OC(C)(C)C=C2.Cl | 69.92 | 8.86 | 21.22 |

Second part, the compound before the results:

| SMILES | EC50 (Calf thymus DNA) | IC50 (L1210) | IC50 (A549) | IC50 (HT-29 [4]) | EC50 (Nucleic Acid) | Activity (HT-29 [1]) | Activity (HT-29 [2]) | Activity (HT-29 [3]) |
| --- | --- | --- | --- | --- | --- | --- | --- | --- |
| CN(C)CCNC(=O)c1cc2c(c3oc4ccccc4c(=O)c13)C=CC(C)(C)O2 | 197 µM | 16 µM | 90 µM | 12 µM |  |  |  |  |
| CN(C)CCNC(=O)c1c2c(cc3oc4ccccc4c(=O)c13)OC(C)(C)C=C2 | 107 µM | 12 µM | 57 µM | 60 µM |  |  |  |  |
| CN(C)CCNc1c2c(cc3oc4ccccc4c(=O)c13)OC(C)(C)C=C2.Cl |  | 5.8 µM | 30 µM | 23 µM | Not detected |  |  |  |
| CN(C)CCNCc1c2c(cc3oc4ccccc4c(=O)c13)OC(C)(C)C=C2 | 39 µM | 4 µM | 25 µM | 6.4 µM |  |  |  |  |
| COc1cc2c(c3c1c(=O)c1ccccc1n3C)C=CC(C)(C)O2 [ACRONINE] | 82 µM | 27 µM | > 100 µM | > 100 µM |  |  |  |  |
| O=C1c2c(O)ccc(O)c2C(=O)c2c(NCCNCCO)ccc(NCCNCCO)c21 [MITOXANTRONE] | 0.4 µM | 0.04 µM | 0.3 µM | 8 µM |  |  |  |  |
